Measurements as given in US20110060021A1 (priority 2009, published 2011).

Tests used:
[1] = test system: recombinant human HDAC1-4 and HDAC6-9; test: Histone deacetylase inhibition, two-step fluorogenic assay; assay type: biochemical; settings: reduced form of the compound
Description: TCEP, tris(2-carboxyethyl)phosphine hydrocloride used as a reducing agent.
The experiments included HDACs falling in human class I (HDACs 1, 2, 3 and 8), as well as human class II (HDACs 4, 6, 7 and 9), and the activities were determined in a two-step fluorogenic assay by the method described in (Wegener et al. Analytical biochemistry (2003) 321:202-208). All HDAC dose-response curves were bundled for each compound individually in the native/oxidized and the reduced forms. The activity of each enzyme was normalized separately. For determination of the inhibitory effect, IC50 values (in μM concentrations) were obtained through a non-linear four-parameter fit.

[2] = test system: breast cancer cell line (BT-549); test: NCI-60 assay, BT-549 cell line; assay type: cell-based, human
NCI-60 cancer cell lines [3] = settings: for number of cancer cell lines completely killed / number of cancer cell lines whose growth was totally inhibited / TGI50, median concentration for total growth inhibition / GI50 / CC50: five-dose assay; for number of cancer cell lines completely killed: at median LC50 or lower; for number of cancer cell lines whose growth was totally inhibited: at median TGI50 or lower; for TGI50, median concentration for total growth inhibition: 29 (A) / 28 (B) cell lines; for GI50: read-out: GI50, median concentration, all but three cancer cell lines (HCT-15, NCI/ADR-RES, CAKI-1); for CC50: read-out: LC50, median concentration, 17 (A) / 20 (B) cell lines completely killed
[4] = test system: CNS cancer cell line (U251); test: NCI-60 assay, U251 cell line; assay type: cell-based, human
NCI-60 cancer cell lines [5] = test: NCI-60 single-dose assay; assay type: cell-based, human; settings: single dose 10 μM

Row | Compound | HDAC inhibition ranking (order of inhibition) [1] | sensitivity of BT-549 breast cancer cell line [2] | number of cancer cell lines completely killed (NCI-60 cancer cell lines [3]) | number of cancer cell lines whose growth was totally inhibited (NCI-60 cancer cell lines [3]) | TGI50, median concentration for total growth inhibition (NCI-60 cancer cell lines [3]) | GI50 (NCI-60 cancer cell lines [3]) | CC50 (NCI-60 cancer cell lines [3]) | sensitivity of U251 CNS cancer cell line [4] | inhibitory activity across the 60 cancer cell lines (NCI-60 cancer cell lines [5]) | number of cell lines inhibited at the mean growth percent or more (NCI-60 cancer cell lines [5]) | cancer cell lines inhibited in five-dose assay (NCI-60 cancer cell lines [3]; exceptions: HCT-15 colon, NCI/ADR-RES ovarian, CAKI-1 renal) | relative potency (all parameters) (NCI-60 cancer cell lines [3]; thailandepsin A vs thailandepsin B)
1 | CC=C1NC(=O)C(CS)NC(=O)C(C(C)C)NC(=O)CC(C=CCCS)OC(=O)C(C(C)C)NC1=O (stereo not drawn) [reduced form of FK228] | HDAC2≧HDAC3≧HDAC1>HDAC8>HDAC4≧HDAC6>HDAC9≧HDAC7 |  |  |  |  |  |  |  |  |  |  | 
2 | CCCC[C@H]1NC(=O)C[C@H]2/C=C/CCSSC[C@@H](NC1=O)C(=O)N[C@H]([C@@H](C)CC)[C@@H](O)CC(=O)O2 [thailandepsin B] |  | very sensitive | 20 cancer cell lines | 28 cancer cell lines | ≤ 256.4 nM | ≤ 11.7 nM | ≤ 6920 nM | very sensitive | consistently inhibitory to most but not all 60 cancer cell lines | 30 cell lines |  | 
3 | CC[C@H](C)[C@H]1NC(=O)[C@H]2CSSCC/C=C/[C@H](CC(=O)N[C@H](CCSC)C(=O)N2)OC(=O)C[C@@H]1O [thailandepsin A] |  | very sensitive | 17 cancer cell lines | 29 cancer cell lines | ≤ 125.9 nM | ≤ 5.6 nM | ≤ 3890 nM | very sensitive | consistently inhibitory to most but not all 60 cancer cell lines | 28 cell lines | inhibitory to all but three cancer cell lines | twice as potent as thailandepsin B
